Measured values: paper PMC6471532, “Drug Transport across Porcine Intestine Using an Ussing Chamber System: Regional Differences and the Effect of P-Glycoprotein and CYP3A4 Activity on Drug Absorption” (Pharmaceutics, 2019)
In brackets after ≈: the same amount, converted by molar mass.

Key:
CYP3A4 [1] = conditions: jejunum
[2] = Passive absorption across viable porcine intestine (jejunum) ex vivo, Ussing chamber, from KBR and biorelevant media; conditions: female, Swiss noble, pig
[3] = system: viable porcine intestine (jejunum); test: as above; conditions: for QDEP FeSSIF V2 / QDEP KBR / QDEP FaSSIF V2: amount deposited in intestine at 2 h as % of donor; for QPERM FeSSIF V2 / QPERM KBR / QPERM FaSSIF V2: amount permeated at 2 h as % of donor
[4] = Solubility in KBR, FaSSIF V2 and FeSSIF V2
human jejunum = conditions: cited from earlier work; for Peff,human^a In Vivo: Loc-I-Gut, jejunal segment, cylindrical surface area; for Peff,human^b In Vivo: Loc-I-Gut with physiological estimates of the surface area for absorption
[5] = system: porcine duodenum, jejunum, ileum and colon; test: Segmental drug permeation across porcine duodenum, jejunum, ileum and colon, Ussing chamber; type: in vitro ADME, pig; conditions: KBR, 2 h
[6] = as above; type: in vitro ADME, pig; conditions: female, Swiss noble, pig, 100 µM in KBR
human intestine = conditions: Ussing chamber; cited from earlier work
[7] = source not given; cited from earlier work
P-gp [8] = biological target: T1, P-gp (Sus scrofa, UniProt K7GMM7)
P-gp [9] = biological target: T1, P-gp; test: in vitro; conditions: female, Swiss noble, pig, pH 7.4, with verapamil hydrochloride 100 µM in the donor compartment
CYP3A4 [10] = test: in vitro; conditions: female, Swiss noble, pig, jejunum, 100 µM in KBR
[11] = KBR buffer, pH 7.4, aqueous buffer

T1 sequence (K7GMM7 1-1248): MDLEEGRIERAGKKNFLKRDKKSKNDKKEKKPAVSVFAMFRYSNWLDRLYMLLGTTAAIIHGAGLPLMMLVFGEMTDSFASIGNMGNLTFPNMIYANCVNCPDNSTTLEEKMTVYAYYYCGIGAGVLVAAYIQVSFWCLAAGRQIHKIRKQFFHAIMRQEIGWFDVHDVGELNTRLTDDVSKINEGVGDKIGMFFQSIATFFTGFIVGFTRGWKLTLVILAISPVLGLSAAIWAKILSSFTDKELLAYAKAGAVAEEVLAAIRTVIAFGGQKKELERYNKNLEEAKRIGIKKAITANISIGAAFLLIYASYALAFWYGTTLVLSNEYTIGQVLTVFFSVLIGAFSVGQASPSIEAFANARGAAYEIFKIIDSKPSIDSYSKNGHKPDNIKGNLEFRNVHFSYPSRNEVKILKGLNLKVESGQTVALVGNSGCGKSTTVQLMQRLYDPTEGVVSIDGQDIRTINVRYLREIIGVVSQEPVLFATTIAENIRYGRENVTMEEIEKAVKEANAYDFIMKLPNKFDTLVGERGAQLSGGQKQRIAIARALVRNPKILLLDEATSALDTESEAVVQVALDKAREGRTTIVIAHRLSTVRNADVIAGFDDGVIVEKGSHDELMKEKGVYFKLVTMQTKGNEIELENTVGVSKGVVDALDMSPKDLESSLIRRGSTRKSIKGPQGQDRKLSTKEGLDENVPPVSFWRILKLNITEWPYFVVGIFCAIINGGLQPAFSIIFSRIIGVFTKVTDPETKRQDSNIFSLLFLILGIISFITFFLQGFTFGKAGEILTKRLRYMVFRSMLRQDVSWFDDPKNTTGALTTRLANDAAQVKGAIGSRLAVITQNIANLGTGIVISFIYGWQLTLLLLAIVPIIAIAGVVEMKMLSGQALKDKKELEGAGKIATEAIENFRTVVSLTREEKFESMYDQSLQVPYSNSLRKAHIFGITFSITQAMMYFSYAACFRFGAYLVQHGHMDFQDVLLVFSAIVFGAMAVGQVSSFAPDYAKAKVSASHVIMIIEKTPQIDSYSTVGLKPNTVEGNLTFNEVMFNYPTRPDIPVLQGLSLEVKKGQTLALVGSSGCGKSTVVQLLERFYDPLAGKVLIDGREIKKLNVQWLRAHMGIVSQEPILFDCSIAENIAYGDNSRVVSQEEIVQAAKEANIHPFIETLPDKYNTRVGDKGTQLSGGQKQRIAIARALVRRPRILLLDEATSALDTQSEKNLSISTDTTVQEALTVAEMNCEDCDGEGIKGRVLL

Structure (SMILES) | Papp at 120 min, 100 µM ([2]; pH 5.8) | Papp at 120 min, 100 µM ([2]; pH 6.5) | Papp at 120 min, 100 µM ([2]; pH 7.4) | QDEP FeSSIF V2 [3] | QDEP KBR [3] | QPERM FeSSIF V2 [3] | QPERM KBR [3] | solubility ([4]; FaSSIF V2, pH 6.5, fassif) | solubility ([4]; FeSSIF V2, pH 5.8, fessif) | solubility [4, 11] | Peff,human^a In Vivo (human jejunum) | QDEP FaSSIF V2 [3] | QPERM FaSSIF V2 [3] | other results
OCc1ncc2n1-c1ccc(Cl)cc1C(c1ccccc1F)=NC2 [α-hydroxymidazolam] |  |  |  |  |  |  |  |  |  |  |  |  |  | Amount of principal metabolite in the intestinal tissue in the presence of clotrimazole (CYP3A4 [1]; parent drug 100 µM, clotrimazole 100 µM): significantly decreased
NC(=O)N1c2ccccc2C=Cc2ccccc21 [Carbamazepine] | 4.26 ± 0.96 ×10⁻⁶ cm/s | 5.97 ± 0.52 ×10⁻⁶ cm/s | 7.81 ± 5.69 ×10⁻⁶ cm/s | 3.45 ± 0.52% | 1.44 ± 0.16% | 0.58 ± 0.22% | 2.39 ± 0.42% | 320 ± 10 µg/mL (≈ 1.35 mM) | 730 ± 10 µg/mL (≈ 3.09 mM) | 200 ± 20 µg/mL (≈ 0.846 mM) | 430 n.a. [31] 10^−6 cm/s |  |  | 
COCCc1ccc(OCC(O)CNC(C)C)cc1 (racemic) [Metoprolol, (+/−)-Metoprolol] | 5.79 ± 1.38 ×10⁻⁶ cm/s | 7.62 ± 1.41 ×10⁻⁶ cm/s | 10.6 ± 2.92 ×10⁻⁶ cm/s | 0.22 ± 0.01% | 0.28 ± 0.04% | 0.74 ± 0.08% | 0.18 ± 0.05% | 43800 ± 15800 µg/mL (≈ 164 mM) | 381000 ± 33800 µg/mL (≈ 1420 mM) | 298000 ± 13900 µg/mL (≈ 1110 mM) |  | 0.12 ± 0.03% | 0.89 ± 0.19% | QDEP Colon ([5]; colon): 0.02 ± 0.00%; QPERM Colon ([5]; colon): 1.65 ± 0.87 (6) %; QDEP Duodenum ([5]; duodenum): 2.35 ± 0.25%; QPERM Duodenum ([5]; duodenum): 0.14 ± 0.08 (5) %; QDEP Ileum ([5]; ileum): 1.89 ± 0.67%; QPERM Ileum ([5]; ileum): 0.83 ± 0.09 (5) %; QPERM Jejunum ([5]; jejunum): 0.18 ± 0.05 (4) %; Papp at 120 min, 100 µM ([6]; pH 7.4, colon, read-out: Papp,pig Ex Vivo Colon): 17.6 ± 5.41 ×10⁻⁶ cm/s; Papp at 120 min, 100 µM ([6]; pH 7.4, duodenum, read-out: Papp,pig Ex Vivo Duodenum): 0.39 ± 0.16 ×10⁻⁶ cm/s; Papp at 120 min, 100 µM ([6]; pH 7.4, ileum, read-out: Papp,pig Ex Vivo Ileum): 6.87 ± 1.23 ×10⁻⁶ cm/s; Papp at 120 min, 100 µM ([6]; pH 7.4, jejunum, read-out: Papp,pig Ex Vivo Jejunum): 10.6 ± 2.92 ×10⁻⁶ cm/s; Papp,human jejunum (human intestine): 15.9 ± 3.69 10^−6 cm/s
NS(=O)(=O)c1cc2c(cc1Cl)NCNS2(=O)=O [Hydrochlorothiazide] | 1.37 ± 0.53 ×10⁻⁶ cm/s | 0.2 ± 0.25 ×10⁻⁶ cm/s | 2.88 ± 2.84 ×10⁻⁶ cm/s | 0.74 ± 0.09% |  | 0.23 ± 0.08% |  |  |  |  | 4 n.a. [31] 10^−6 cm/s | 0.22 ± 0.11% | 0.11 ± 0.05% | 
CN1C(C(=O)Nc2ccccn2)=C(O)c2ccccc2S1(=O)=O [Piroxicam] | 5.14 ± 0.78 ×10⁻⁶ cm/s | 10.8 ± 3.7 ×10⁻⁶ cm/s | 8.93 ± 2.03 ×10⁻⁶ cm/s | 0.21 ± 0.04% | 4.12 ± 0.15% | 1.13 ± 0.46% | 2.52 ± 0.70% | 290 ± 20 µg/mL (≈ 0.875 mM) | 60 µg/mL (≈ 0.181 mM) | 430 ± 20 µg/mL (≈ 1.3 mM) | 665 n.a. [31] 10^−6 cm/s | 5.63 ± 0.26% | 2.32 ± 0.79% | log P [7]: 3.06
NS(=O)(=O)c1cc(C(=O)O)c(NCc2ccco2)cc1Cl [Furosemide] |  |  |  | 1.52 ± 0.24% |  |  |  |  |  |  | 5 n.a. [31] 10^−6 cm/s | 2.22 ± 0.17% |  | Peff,human^b In Vivo (human jejunum): 1–1.6 [77] 10^−6 cm/s
COc1ccc2cc([C@H](C)C(=O)O)ccc2c1 [Naproxen] |  |  |  | 4.74 ± 1.04% |  |  |  |  |  |  | 850 n.a. [31] 10^−6 cm/s |  |  | Peff,human^b In Vivo (human jejunum): 27–42 [77] 10^−6 cm/s
CNC(=C[N+](=O)[O-])NCCSCc1ccc(CN(C)C)o1 [Ranitidine] |  |  |  |  |  |  |  | 15900 ± 1470 µg/mL (≈ 50.5 mM) | 808000 ± 70500 µg/mL (≈ 2570 mM) | 19600 ± 2780 µg/mL (≈ 62.5 mM) |  |  |  | Effect of the presence of verapamil on Papp,pig in the ileum (P-gp [8]; ileum, verapamil 100 µM, Student's t-test): significantly increased; QDEP Ileum (+VER) (P-gp [8]; ileum, with verapamil 100 µM): 7.91 ± 0.74%; QPERM Ileum (+VER) (P-gp [8]; ileum, with verapamil 100 µM): 0.25 ± 0.03 (6) %; QDEP Ileum (−VER) (P-gp [8]; ileum, without verapamil): 1.10 ± 0.59%; QPERM Ileum (−VER) (P-gp [8]; ileum, without verapamil): 0.55 ± 0.35 (4) %; Difference in Papp,pig across the jejunum in the presence or absence of verapamil (P-gp [8]; jejunum, verapamil 100 µM): No statistically significant difference; QDEP Jejunum (+VER) (P-gp [8]; jejunum, with verapamil 100 µM): 5.47 ± 0.75%; QPERM Jejunum (+VER) (P-gp [8]; jejunum, with verapamil 100 µM): 0.23 ± 0.15 (5) %; QDEP Jejunum (−VER) (P-gp [8]; jejunum, without verapamil): 1.32 ± 0.31%; QPERM Jejunum (−VER) (P-gp [8]; jejunum, without verapamil): 0.67 ± 0.12 (6) %; Papp at 120 min, 100 µM (P-gp [9]): 4.92 ×10⁻⁶ cm/s
Cc1ncc2n1-c1ccc(Cl)cc1C(c1ccccc1F)=NC2 [Midazolam] |  |  |  |  |  |  |  |  |  |  |  |  |  | Papp at 120 min, 100 µM (CYP3A4 [10]; pH 7.4, Papp,pig Ex Vivo (+CLOTR), with clotrimazole 100 µM): 0.46 ± 0.07 ×10⁻⁶ cm/s; Papp at 120 min, 100 µM (CYP3A4 [10]; pH 7.4, Papp,pig Ex Vivo (−CLOTR), without clotrimazole): 0.183 ± 0.138 ×10⁻⁶ cm/s; log P [7]: 3.89; Effect of the presence of clotrimazole on Papp,pig (CYP3A4 [1]; clotrimazole 100 µM): significantly increased; QDEP (+CLOTR) (CYP3A4 [1]; with clotrimazole 100 µM): 7.49 ± 2.50%; QPERM (+CLOTR) (CYP3A4 [1]; with clotrimazole 100 µM): 0.18 ± 0.08%; QDEP (−CLOTR) (CYP3A4 [1]; without clotrimazole): 8.06 ± 1.33%; QPERM (−CLOTR) (CYP3A4 [1]; without clotrimazole): 0.13 ± 0.09%
